Laboratory results taken from patent publication US20250290928A1, “METHOD, KIT AND DEVICE FOR DETECTING EXTRACELLULAR VESICLES” (priority 2022, published 2025).
No end group written: not given here. *: point of attachment. 5FAM = O=C1OC2(c3ccc(O)cc3Oc3cc(O)ccc32)c2ccc(C(=O)*)cc21; TQ2 = quencher

Key:
[1] = test system: MMP in the MDA-MB-231-derived extracellular vesicles; test: Digital detection of MDA-MB-231-derived extracellular vesicles through MMP activity in wells (SB substrates); assay type: biochemical, Human; conditions: for Expected value λ / Number of positives / Positive ratio: 6 h; for Extracellular vesicle concentration / Expected value λ (×1): Example 35, 6 h; for Extracellular vesicle concentration: at a concentration of x1, 50 fL; for Expected value λ (×1): from power approximation equation
Description: The concentration of the solution is 10 μg/mL. […] The solution was further diluted 2-fold to prepare a standard sample at a concentration of x1/4, further diluted 3-fold to prepare a standard sample at a concentration of x1/12, and further diluted 3-fold to prepare a standard sample at a concentration of x1/36. Thus, the standard samples with four concentrations were prepared.
In addition, 1 mM Alexa Fluor 647 was used as a standard fluorescent substance, and each of the MMP14 detection solutions contained the standard fluorescent substance at a final concentration of 2 μM.
(§1) 50 μL of each of the MMP detection solutions was added to 50 μL of each of the samples, a reaction was performed at 30° C., and MMP activity was evaluated.

[2] = test system: MMP in the A549-derived extracellular vesicles; test: Evaluation of MMP activity of A549-derived extracellular vesicles with 96-well plate (SensoLyte 520 MMP Substrate Sampler Kit); assay type: biochemical, Human; conditions: Example 34, EV 4 μg/mL, reporter 5 μM, buffer (4)
Description: The MMP14 activity was evaluated with a 96-well plate (manufactured by Thermo Fisher Scientific Inc., model number: 137101). A fluorescence intensity was measured with a fluorescence plate reader (Synergy MX, manufactured by BioTek Instruments, Inc.) at […] every 5 min for 1 hour. For measurement wavelengths, an excitation wavelength of 485±20 nm and a fluorescence wavelength of 528±20 nm were used.
(§2) 50 μL of the MMP detection solution was added to 50 μL of each of the samples, a reaction was performed at 30° C., and MMP activity was evaluated.

[3] = test system: MMP in the MDA-MB-231-derived extracellular vesicles; test: Evaluation of MMP activity of MDA-MB-231-derived extracellular vesicles with 96-well plate (SensoLyte 520 MMP Substrate Sampler Kit); assay type: biochemical, Human; conditions: for Fluorescence change after 1 hour of reaction at 30° C.: Example 34, EV 4 μg/mL, reporter 5 μM, buffer (4); for Fluorescence change after 2 hours of reaction at 30° C.: MP, EV 3.3 μg/mL
Description: as §2, §1

[4] = test system: MMP in the A549-derived extracellular vesicles; test: Digital detection of A549-derived extracellular vesicles through MMP activity in wells (SB substrates); assay type: biochemical, Human; conditions: for Extracellular vesicle concentration: at a concentration of x1, 50 fL; for Expected value λ / Number of positives / Positive ratio: Example 36, EV 5 μg/mL, reporter 5 μM, 30° C.
Description: (§3) The concentration of the solution is 10 μg/mL.
50 μL of each of the MMP detection solutions was added to 50 μL of the sample to provide a reaction solution for wells.

[5] = target: T1, MMP14 in the MDA-MB-231-derived extracellular vesicles (Homo sapiens, UniProt P50281); test: Digital detection of MDA-MB-231-derived extracellular vesicles through MMP14 activity in wells (microcompartments); assay type: biochemical; conditions: for Extracellular vesicle concentration: at a concentration of x1, 50 fL; for Expected value λ / Number of positives / Positive ratio: Example 38, EV 2.5 μg/mL, reporter 5 μM, 30° C.
T1 construct: in terms of intact MMP14 with a molecular weight of 70 kDa
Description: The concentration of the solution is 6.7 μg/mL.
100 μL of the MMP14 detection solution was added to 100 μL of the sample to provide a reaction solution for wells. […] 100 μL of 200 μL of the prepared reaction solution for wells was used in the measurement of MMP14 activity with a 96-well plate.
Next, the wells were filled with the reaction solution by leaving the well array 200 to stand under reduced pressure to degas the space 205. After that, the space 205 was fed with hydrophobic solvents to be sealed. Fluorinated oils AsahiKlin AE-3000 (manufactured by AGC Inc.) and Fomblin Y-25 (manufactured by Solvay S.A.) were used as the hydrophobic solvents. A fluorinated oil Simoa (trademark) SR-X Sealing Oil: 102767 (manufactured by Quanterix Corporation) was further used as another hydrophobic solvent.
Well diameter: 4.25 μm Well depth: 3.25 μm Well capacity: 50 fL Number of wells in array: 239,000 Array range: 3 mm×4 mm
The concentration of the solution is 20 μg/mL. […] The concentration of the solution was set to x1, and 10-fold serial dilution was performed to prepare standard samples with five concentrations.
Next, the wells were filled with the reaction solution by leaving the well array 200 to stand under reduced pressure to degas the space 205. After that, the space 205 was fed with hydrophobic solvents to be sealed.
The concentration of the solution is 20 μg/mL. […] The concentration of the solution was set to x1, and 3-fold serial dilution was performed to prepare standard samples with three concentrations.
The concentration of the solution is 20 μg/mL. […] The concentration of the solution was set to x1, and 2-fold serial dilution was performed to prepare standard samples with four concentrations.
The concentration of the solution is 5 μg/mL.
50 μL of the MMP14 detection solution was added to 50 μL of the sample to provide a reaction solution for wells.
50 μL of each of the MMP14 detection solutions was added to 50 μL of the sample to provide a reaction solution for wells.
The concentration of the solution is 6.7 µg/mL.

[6] = target: T1, MMP14 in the MDA-MB-231-derived extracellular vesicles; test: Evaluation of MMP14 activity of MDA-MB-231-derived extracellular vesicles with 96-well plate; assay type: biochemical
Description: A relative fluorescence unit difference ΔRFU was calculated by subtracting the measured value of the sample for BG measurement from the measured value of each of the samples.
The concentration of the solution is 41.7 μg/mL. The concentration of the solution was set to x1, and 2-fold serial dilution was performed to prepare standard samples with six concentrations.
50 μL of the MMP14 detection solution was added to 50 μL of each of the samples, a reaction was performed at 37° C., and MMP14 activity was evaluated.
as §3
50 μL of each of the MMP14 detection solutions was added to 50 μL of each of the samples, a reaction was performed at 37° C., and MMP14 activity was evaluated. […]
The concentration of the solution is 20 μg/mL. The concentration of the solution was set to x1, and 3-fold serial dilution was performed to prepare standard samples with three concentrations.
The concentration of the solution is 8 μg/mL.
50 μL of each of the MMP14 detection solutions was added to 50 μL of the sample, a reaction was performed at 37° C., and MMP14 activity was evaluated. […]
50 μL of the MMP14 detection solution was added to 50 μL of each of the samples, a reaction was performed at 30° C., and MMP14 activity was evaluated.
The MMP14 activity of the extracellular vesicles was evaluated with a 96-well plate (137101). A fluorescence intensity was measured with a fluorescence plate reader (Synergy) at 30° C. every 5 minutes for 2 hours. For measurement wavelengths, an excitation wavelength of 545±20 nm and a fluorescence wavelength of 588±20 nm were used. A relative fluorescence unit difference (ΔRFU) was calculated by subtracting the measured value of the sample for BG measurement from the measured value of each of the samples.
50 μL of each of the MMP14 detection solutions was added to 50 μL of each of the samples, a reaction was performed at 30° C., and MMP14 activity was evaluated.

[7] = Example 35, 30° C., EV 0 (free of extracellular vesicles, pseudopositive)
[8] = Example 35, 30° C., EV 1/4 a.u.
[9] = Example 35, 30° C., EV 1/12 a.u.
[10] = Example 35, 30° C., EV 1/36 a.u.
[11] = Example 35, reporter 5 μM, 30° C., EV 1/2 a.u. (5 μg/mL in reaction solution)
[12] = 1.25 μM with 1.25 μM Custom #2T

Row | Substance | Expected value λ [1, 7] | Number of positives [1, 7] | Positive ratio [1, 7] | Expected value λ [1, 8] | Number of positives [1, 8] | Positive ratio [1, 8] | Expected value λ [1, 9] | Number of positives [1, 9] | Positive ratio [1, 9] | Expected value λ [1, 10] | Number of positives [1, 10] | Positive ratio [1, 10] | Extracellular vesicle concentration [1] | Expected value λ (×1) [1] | Expected value λ [1, 11] | Number of positives [1, 11] | Positive ratio [1, 11] | Fluorescence change after 1 hour of reaction at 30° C. [2] | Fluorescence change after 1 hour of reaction at 30° C. [3] | Fluorescence change after 2 hours of reaction at 30° C. [3, 12] | further results
1 | QXL520-Arg-Pro-Leu-Ala-Leu-Trp-Arg-Lys(5-FAM)-NH2 (QXL520-RPLALWRK(5FAM)-NH2) [SB9] | 3.56E−05 | 1 | 3.56E−05 | 0.2881 | 7,010 | 0.2503 | 0.01591 | 442 | 0.01579 | 0.01251 | 349 | 0.01243 | 4.7e+10 mL⁻¹ | 2.3593 | 0.9949 | 17,697 | 0.6302 | 1,775 ΔRFU | 62,330 ΔRFU | 39,228 ΔRFU | Fluorescence change after 2 hours of reaction at 30° C. ([3]; 5 μM with 5 μM Custom #2T): 40,247 ΔRFU; Expected value λ (×1) ([4]; Example 36, 4 hr): 0.1169; Extracellular vesicle concentration ([4]; Example 36, 4 hr): 2.338e+09 mL⁻¹; Expected value λ (×1) ([4]; Example 36, 24 hr): 0.01093; Extracellular vesicle concentration ([4]; Example 36, 24 hr): 2.185e+08 mL⁻¹; Expected value λ ([4]; 4 hr): 0.05844; Number of positives ([4]; 4 hr): 1,594; Positive ratio ([4]; 4 hr): 0.05677; Expected value λ ([4]; 24 hr): 0.00546; Number of positives ([4]; 24 hr): 153; Positive ratio ([4]; 24 hr): 0.00545
2 | QXL520-Pro-Tyr-Ala-Tyr-Trp-Met-Arg-Lys(5-FAM)-NH2 (QXL520-PYAYWMRK(5FAM)-NH2) [SB7] | 0.000107 | 3 | 0.000107 | 0.3689 | 8,663 | 0.3085 | 0.03574 | 986 | 0.03511 | 0.01933 | 536 | 0.01914 | 6.8e+10 mL⁻¹ | 3.4196 | 1.56 | 22,181 | 0.7899 | 1,228 ΔRFU | 39,031 ΔRFU | 28,167 ΔRFU | Fluorescence change after 2 hours of reaction at 30° C. ([3]; 5 μM with 5 μM Custom #2T): 32,014 ΔRFU; Expected value λ (×1) ([4]; Example 36, 4 hr): 0.02833; Extracellular vesicle concentration ([4]; Example 36, 4 hr): 5.667e+08 mL⁻¹; Expected value λ (×1) ([4]; Example 36, 24 hr): 0.00264; Extracellular vesicle concentration ([4]; Example 36, 24 hr): 5.274e+07 mL⁻¹; Expected value λ ([4]; 4 hr): 0.01417; Number of positives ([4]; 4 hr): 395; Positive ratio ([4]; 4 hr): 0.01407; Expected value λ ([4]; 24 hr): 0.00132; Number of positives ([4]; 24 hr): 37; Positive ratio ([4]; 24 hr): 0.00132
3 | TQ2-LAPLGLQRRK(5-FAM) (TQ2-LAPLGLQRRK(5FAM)) [Custom #11] | – | – | – | – | – | – | – | – | – | – | – | – | – | – | – | – | – | – | – | – | Expected value λ (×1) ([5]; Example 38, 4 hr): 0.5433; Extracellular vesicle concentration ([5]; Example 38, 4 hr): 1.087e+10 mL⁻¹; Expected value λ (×1) ([5]; Example 38, 24 hr): 1.166; Extracellular vesicle concentration ([5]; Example 38, 24 hr): 2.3319e+10 mL⁻¹; Expected value λ ([5]; 4 hr): 0.1358; Number of positives ([5]; 4 hr): 3,566; Positive ratio ([5]; 4 hr): 0.127; Expected value λ ([5]; 24 hr): 0.2915; Number of positives ([5]; 24 hr): 7,100; Positive ratio ([5]; 24 hr): 0.2529; Fluorescence change after 2 hours of reaction at 30° C. ([6]; Example 37, EV 5 μg/mL, reporter 5 μM, buffer (4)): 33,665 ΔRFU; Fluorescence change after 2 hours of reaction at 30° C. ([6]; MP, 1.25 μM with 5 μM Custom #2TF3): 12,156 ΔRFU; Fluorescence change after 2 hours of reaction at 30° C. ([6]; MP, 2.5 μM with 2.5 μM Custom #2TF3): 18,065 ΔRFU
